Results as given in paper PMC7892475, “C-Terminal Amination of a Cationic Anti-Inflammatory Peptide Improves Bioavailability and Inhibitory Activity Against LPS-Induced Inflammation” (Frontiers in Immunology, 2021).
Entries after “also recorded” stand apart in the source; their conditions may differ. Ends that are not written are not given here.

T1: TLR4/MD-2 complex (Mus musculus, UniProt Q9QUK6)
T1 chain 1: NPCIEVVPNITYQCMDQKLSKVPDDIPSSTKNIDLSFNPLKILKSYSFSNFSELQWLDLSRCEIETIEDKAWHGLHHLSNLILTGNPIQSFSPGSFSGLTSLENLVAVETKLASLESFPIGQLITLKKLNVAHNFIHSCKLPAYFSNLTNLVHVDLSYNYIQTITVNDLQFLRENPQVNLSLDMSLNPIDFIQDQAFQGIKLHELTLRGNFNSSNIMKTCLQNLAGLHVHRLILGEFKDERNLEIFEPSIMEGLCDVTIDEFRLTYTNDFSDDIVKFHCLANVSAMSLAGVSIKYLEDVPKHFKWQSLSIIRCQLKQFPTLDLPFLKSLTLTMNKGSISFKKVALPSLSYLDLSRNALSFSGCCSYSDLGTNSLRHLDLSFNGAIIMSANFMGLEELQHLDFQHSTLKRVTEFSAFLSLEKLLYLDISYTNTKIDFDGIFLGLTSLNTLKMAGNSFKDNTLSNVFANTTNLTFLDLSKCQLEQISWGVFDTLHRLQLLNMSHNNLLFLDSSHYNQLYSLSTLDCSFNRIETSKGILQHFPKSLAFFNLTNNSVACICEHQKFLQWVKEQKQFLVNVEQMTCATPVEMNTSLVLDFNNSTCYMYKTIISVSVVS
T1 chain 2: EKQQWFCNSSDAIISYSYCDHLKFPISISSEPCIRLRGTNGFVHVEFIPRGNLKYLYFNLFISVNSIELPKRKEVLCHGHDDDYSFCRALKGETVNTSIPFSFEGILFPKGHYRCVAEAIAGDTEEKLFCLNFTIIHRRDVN


Tests used:
[1] = system: LPS-stimulated RAW264.7 cells; assay: Anti-inflammatory assay in LPS-stimulated RAW264.7 cells (ELISA of cytokines); format: cell-based, mouse; conditions: 10 μg/ml peptide 30 min before 100 ng/ml LPS, 12 h, 37°C, ELISA of supernatant
Experimental: RAW264.7 cells were treated with or without 10 μg/ml peptides for 30 min before the addition of 100 ng/ml LPS (E. coli, O55:B5, Sigma-Aldrich, Germany) and further incubation for 12 h at 37°C After treatment, the concentrations of TNF-α, IL-6, and IL-1β in the cell supernatants were assessed.
(§1) The levels of tumor necrosis factor (TNF)-α, interleukin (IL)-6, and IL-1β in cell culture supernatants and the levels of TNF-α, IL-6, and IL-1β in the serum of mice were detected using commercial ELISA kits (eBioscience, San Diego, USA) according to the manufacturer’s instructions. The levels of serum alanine amino transferase (ALT) and aspartate amino transferase (AST) were detected using commercial reagent kits (Nanjing Jiancheng Bioengineering Institute, Nanjing, China). The activity of myeloperoxidase (MPO) in the liver of mice was detected using an ELISA kit (Boster, Wuhan, China) according to the manufacturer’s instructions.

RAW264.7 cells [2] = assay: CCK-8 cell viability assay; format: cell-based, mouse; conditions: RAW264.7 macrophages, CCK-8, 0 to 80 μg/ml, 24 h or 72 h, 37°C
Experimental: The viability of peptide-treated RAW264.7 cells was determined using a Cell Counting Kit-8 (CCK-8) Assay Kit (Dojindo) ([35]). RAW264.7 cells were plated in 96-well plates at a density of 3×10^4 cells/ml in 100 μl DMEM overnight. The cell culture medium was then supplemented with fresh medium containing candidate peptides in a series of concentrations, and the plates were incubated for another 24 h or 72 h. Each well was incubated with 10 μl CCK-8 solution for 4 h in the dark. Afterwards, the absorbance at 450 nm was measured using a microplate reader. Cell viability was determined by:
Cell viability (%)=(OD450sample/OD450(control))×100%

TLR4/MD-2 complex [3] = assay: Surface plasmon resonance binding; conditions: SPR, Biacore X100, PBS with 0.05% Tween 20, 30 μl/min, 1:1 model, 0 to 10 μM
Experimental: SPR assays were performed using a Biacore X100 instrument (GE Healthcare, Pittsburgh, PA, USA). PBS containing 0.05% Tween 20 was used as the running buffer. The running buffer was continuously passed into the reaction chamber at 30 μl/min. Immobilization of CTP-NH2 on the chip surface was performed according to an amino coupling protocol. […] Running buffer was injected into the empty channel as a reference. To regenerate the chip surface at the end of each experiment, 10 mM Gly-HCl buffer (pH 2.5) was injected. ProteOn manager software (version 2.0) was used to analyze the experimental data. The binding curves were processed for the start injection alignment and baseline. A reference-subtracted sensorgram was then fitted to the curves describing a homogeneous 1:1 model. Data from the protein surfaces were grouped together to fit the association kinetic rate constant (Ka) and the dissociation rate constant (Kd). The equilibrium dissociation constant (KD) for the peptide-TLR4/MD-2 interaction was calculated as follows: […]

[4] = Reverse-phase HPLC retention time as measure of peptide hydrophobicity; format: physicochemical; conditions: HPLC on reverse-phase matrix, aqueous solution; used by the paper as measure of hydrophobicity
From the text: The retention time of peptides on a reverse-phase matrix has been reported to be related to peptide hydrophobicity ([34]).

[5] = LPS neutralization, chromogenic end-point Tachypleus Amebocyte Lysate (TAL) assay; format: binding, E. coli
Experimental: The neutralization of LPS by the peptides was assessed through a quantitative Chromogenic End-point Tachypleus Amebocyte Lysate (CE TAL) assay using a QCL-1000 kit (XIAMEN BIOENDO TECHNOLOGY CO., China). LPS (E. coli, O111:B4, Sigma-Aldrich, USA) at a final concentration of 1.0 U/ml was incubated with various concentrations of the peptides (0 to 64 μg/ml final concentration) at 37°C for 15 min. Afterwards, the mixtures were incubated with TAL assay reagent at 37°C; for 6 min, and the absorbance was measured at 540 nm.

[6] = system: LPS-stimulated RAW264.7 cells; assay: Time of addition experiment (peptide pretreatment, LPS neutralization, post-treatment) in RAW264.7 cells; format: cell-based, mouse; conditions: ELISA
Experimental: To identify the mechanisms underlying the anti-inflammatory effects, three different types of treatments were performed as follow.
Briefly, 10 μg/ml peptide was added to the cell culture medium and incubated with cells for 1 h at 37°C Afterwards, the RAW 264.7 cells were washed with PBS and cultured with fresh medium containing 100 ng/ml LPS for 12 h at 37°C. After treatment, TNF-α, IL-6, and IL-1β secretion in the cell supernatants was assessed.
The peptides (10 μg/ml) were incubated with 100 ng/ml LPS directly for 1 h at 37°C. RAW 264.7 cells were stimulated with these mixtures for 12 h at 37°C. Afterwards, the TNF-α, IL-6 and IL-1β levels in the cell supernatants were assessed.
Briefly, 100 ng/ml LPS was added to the cell culture medium and incubated with cells for 1 h at 37°C. Afterwards, the RAW 264.7 cells were washed with PBS and cultured with fresh medium containing 10 μg/ml peptides for 12 h at 37°C. Afterwards, the TNF-α, IL-6, and IL-1β levels in the cell supernatants were assessed.
as §1

RAW264.7 cells [7] = assay: Cellular uptake and localization of FITC-labeled peptides (confocal microscopy, flow cytometry); format: cell-based, mouse; conditions: N-terminus FITC-labeled peptide, 10 μg/ml, 24 h, 37°C, confocal microscopy and flow cytometry (average FITC intensity)
Experimental: RAW264.7 cells were treated with N-terminus FITC-labeled peptides at 10 μg/ml for 24 h at 37°C; in the dark. Then, the RAW264.7 cells were rinsed with PBS three times, fixed with paraformaldehyde and washed with PBS. The cell nuclei were stained with DAPI (diluted 1:500 in PBS) (Sigma, USA) for 5 min, and the cells were washed with PBS. The above cells were spread on a glass slide, fixed and observed with a Leica TCA sp5 confocal microscope (Germany).
RAW264.7 cells were stained with 10 μg/ml N-terminus FITC-labeled peptides at 37°C in the dark for 24 h. Afterwards, the RAW264.7 cells were harvested and rinsed with PBS five times. The average FITC intensity in the cells was measured via flow cytometry.

TLR4/MD-2 complex [8] = biological target: T1, TLR4/MD-2 complex; assay: SPR

| Molecule | TNF-α, IL-6 and IL-1β secretion levels [1] | cytotoxicity (comparison in words) (RAW264.7 cells [2]) | Ka (association kinetic rate constant) (TLR4/MD-2 complex [3]) [M⁻¹ s⁻¹] | Retention time [4] [min] | 50% binding rate value (LPS neutralization) ([5]; LPS 1.0 U/ml with 0 to 64 μg/ml peptide, 37°C 15 min, TAL reagent 6 min, absorbance 540 nm) | LPS neutralization activity ([5]; chromogenic TAL assay, LPS 1.0 U/ml, 0 to 64 μg/ml peptide) | TNF-α and IL-6 level, peptide used to pretreat cells or added after LPS induction ([6]; 10 μg/ml peptide 1 h then wash and 100 ng/ml LPS 12 h, or LPS 1 h, wash, then peptide 12 h) | TNF-α and IL-6 release, peptide incubated with LPS ([6]; 10 μg/ml peptide incubated with 100 ng/ml LPS 1 h at 37°C, mixture on cells 12 h) | cellular uptake and localization (RAW264.7 cells [7]) | Kd (TLR4/MD-2 complex [8]) [nM] |
| --- | --- | --- | --- | --- | --- | --- | --- | --- | --- | --- |
| RWGRFLRKIRRFRRKDVT [CTP] | enhanced inhibitory activity against LPS-induced inflammation | lower cytotoxicity than the parental peptide (CATH2) but higher cytotoxicity than TP5 | 1.34e+07 | 10.94 | approximately 45.32 ± 5.19 μg/ml | inhibited activation of LPS in a dose-dependent manner | scarcely reduced the elevation in the pro-inflammatory cytokines TNF-α; also recorded: barely exerted such effects | potent inhibition of pro-inflammatory cytokine release | rarely entered RAW264.7 cells | – |
| RWGRFLRKIRRFRRKDVT-NH2 [CTP-NH2 (CATH2(1-13)-TP5 hybrid peptide, C-terminal amide)] | – | – | – | – | – | – | – | – | – | 947 |
| RWGRFLRKIRRFRRKDVT [CTP (CATH2(1-13)-TP5 hybrid peptide)] | – | – | – | – | – | – | – | – | – | 1400 |
